Earlier results as cited in patent US20050004065A1, “Hypoxia regulated genes” (Quark Biotech, Inc., priority 1998, published 2005).

Test system: neuron cells
Settings: in vitro; previously shown

| Structure (SMILES) | toxicity for neuron cells |
| --- | --- |
| CC(C)C(O)CC[C@@H](C)[C@H]1CC[C@H]2[C@@H]3CC=C4C[C@@H](O)CC[C@]4(C)[C@H]3CC[C@]12C (some centres unmarked) [24-hydroxycholesterol] | toxic for neuron cells in vitro |
| C[C@H](CCCC(C)(C)O)[C@H]1CC[C@H]2[C@@H]3CC=C4C[C@@H](O)CC[C@]4(C)[C@H]3CC[C@]12C [25-hydroxycholesterol] | toxic for neuron cells in vitro |
